Test results from US20120230991A1, “METHODS AND COMPOUNDS FOR ENHANCING ANTI-CANCER THERAPY” (priority 2008, published 2012).
Each block holds one molecule with its values, some of them ahead of it.

Key:
[1] = test system: 697 Human B-ALL Cell Lines; experiment: MTT assay, chemosensitivity of 697 cells (wild type, shControl, Mer knockdown), 48 hours; format: cell-based
Method: Inhibition of Mer expression results in increased chemosensitivity in 697 cells. […] IC50 values were determined by non-linear regression of data from at least three independent experiments performed in triplicate, as shown in Table 1.

REH cells [2] = experiment: MTT assay, REH cells (wild type, shControl, Mer knockdown) treated with methotrexate for 48 hours; format: cell-based; conditions: REH shMer4A, shMer4B vs shControl
Source text: Inhibition of Mer expression results in increased chemosensitivity of REH cells. […] Statistical differences versus shControl are indicated by non-overlapping confidence intervals (95% CI). No significant difference between wild type and shControl was observed.

REH cells [3] = experiment: Flow cytometry of apoptotic and dead cells (YO-PRO-1 / propidium iodide), REH cells; format: cell-based; conditions: REH shMer4A, shMer4B vs shControl, 48 hours
Source text: Apoptotic and dead cells were identified by flow cytometric analysis of cells stained with YO-PRO®-1 and propidium iodide: A) representative flow cytometry profiles. The percentage of apoptotic cells is indicated in the lower-right quadrant. The combined percentage of cells in the two upper quadrants indicates the fraction of dead cells.
Apoptotic and dead cells were identified by flow cytometric analysis of cells stained with YO-PRO®-1 and propidium iodide: A) representative flow cytometry profiles. The percentage of apoptotic cells is indicated in the lower-right quadrant. The combined percentage of cells in the two upper quadrants indicates the fraction of dead cells. B) mean values and standard errors derived from 3 independent experiments. Results were tested for significance using two-way repeated measures ANOVA and Bonferroni posttests to compare shControl and Mer knockdown cells at equivalent drug concentrations. Significant differences in apoptotic cell populations are indicated by asterisks (* p<0.01, ** p<0.001). Significant differences in the number of dead cells were also observed († p<0.01, ‡‡ p<0.001). No significant differences between wild type and shControl cells were observed.

G12 astrocytoma cells = experiment: MTT assay, chemosensitivity of G12 astrocytoma control and knockdown cells; format: cell-based
Method: (§1) G12 control (shControl) and knockdown cells (shMer1 and shMer4; shAxl8 and shAxl9) were plated in 96-well plates at concentrations determined to allow linear growth over 3 days: A) cells were treated with varying concentrations of temozolomide and relative cell number was assessed 48 h after treatment by colorimetric assessment/MTT assay. Error bars denote experiments performed in triplicate. A172 control (shControl) and knockdown cells (shMer1A and shMer1B; shAxl8 and shAxl9) were plated in 96-well plates at concentrations determined to allow linear growth over 3 days: B) cells were treated with varying concentrations of carboplatin and relative cell number was assessed 48 h after treatment by colorimetric assessment/MTT assay. Error bars represent three independent experiments performed in triplicate.
(§2) Table 4 provides the IC50 with 95% CI for G12 and A172 control and Mer and Axl knockdown cells, in response to chemotherapy. In Table 4, ‘NR’ indicates an IC50 was never reached. ‘IND’ represents that that CI was indeterminate. The IC50 for each knockdown line was compared to the control line, and an ‘*’ represents that the comparison is statistically different while an ‘NS’ represents that there was no statistically significant difference because either the CI was indeterminate (as with the G12 shAxl9 line treated with carboplatin) or it overlapped with the shControl CI.

A172 glioblastoma cells = experiment: MTT assay, chemosensitivity of A172 control and knockdown cells; format: cell-based; conditions: Homo sapiens
Method: as §1, §2

[4] = test system: A549 Human NSCLC Cell Lines; experiment: Relative cell numbers of A549 cells (wild type, shControl, Axl/Mer knockdown) after 48 hours of drug; format: cell-based; conditions: for IC50: Homo sapiens, A549, 48 h, 48 hours, relative cell number
[5] = test system: A549 Human NSCLC Cell Lines; experiment: BrdU incorporation ELISA, relative cell proliferation of A549 cells, 48 hours; format: cell-based; conditions: for IC50: Homo sapiens, A549, 48 h, BrdU assay
Method: The relative cell proliferation was determined via a BrdU incorporation ELISA. IC50 values were determined by non-linear regression of data from at least three independent experiments performed in triplicate (see Table 3).

697 cells = experiment: Flow cytometry of apoptotic and dead cells (YO-PRO-1 / propidium iodide), 697 cells; format: cell-based, human; conditions: 697 shMer1A vs shControl, 48 hours
Method: Apoptotic and dead cells were identified by flow cytometric analysis of cells stained with YO-PRO®-1 and propidium iodide: A) representative flow cytometry profiles; B) mean values and standard errors derived from 3 independent experiments.
Cultures of shControl or shMer1A 697 cells were exposed to 6-MP, VP-16, or medium only for 48 hours: A) Apoptotic and dead cells were identified by flow cytometric analysis of cells stained with YO-PRO®-1 and propidium iodide: Representative flow cytometry profiles; B) the percentages of apoptotic and dead cells are indicated in lower-right and upper-right quadrants, respectively. Mean values and standard errors derived from 3 independent experiments. Results were tested for significance using two-way ANOVA and Bonferroni posttests to compare shControl and shMer1A cells at equivalent drug concentrations.

[6] = 697 shMer1A (Mer knockdown) cells
[7] = 697 shMer1B (Mer knockdown) cells

SMILES: CN(Cc1cnc2nc(N)nc(N)c2n1)c1ccc(C(=O)N[C@@H](CCC(=O)O)C(=O)O)cc1 [MTX, methotrexate]
IC50 ([1]; 697 Wild Type cells): 27.5 nM
IC50 ([1]; 697 shControl cells): 27.8 nM
IC50 [1, 6]: 12.3 nM
IC50 [1, 7]: 11.8 nM
IC50 values in Mer knockdown cells in comparison to shControl cells (REH cells [2]): significantly lower IC50 values
apoptotic cell death with Mer knockdown (REH cells [3]): increased apoptotic cell death

IC50 (G12 astrocytoma cells; 48 h, G12 shAxl8, 48 h, MTT): 6900 nM
IC50 (G12 astrocytoma cells; 48 h, G12 shAxl9, 48 h, MTT): 1800 nM
IC50 (G12 astrocytoma cells; 48 h, G12 shControl, MTT): 68600 nM
IC50 (G12 astrocytoma cells; 48 h, G12 shMer1, 48 h, MTT): 18200 nM
IC50 (G12 astrocytoma cells; 48 h, G12 shMer4, 48 h, MTT): 1000 nM
IC50 (A172 glioblastoma cells; A 172, 48 h, A172 shAxl8, 48 h, MTT): 27600 nM
IC50 (A172 glioblastoma cells; A 172, 48 h, A172 shAxl9, 48 h, MTT): 38900 nM
IC50 (A172 glioblastoma cells; A 172, 48 h, A172 shControl, 48 h, MTT): 51400 nM
IC50 (A172 glioblastoma cells; A 172, 48 h, A172 shMer1A, 48 h, MTT): 21300 nM
IC50 (A172 glioblastoma cells; A 172, 48 h, A172 shMer1B, 48 h, MTT): 7700 nM
SMILES: Cn1nnc2c(C(N)=O)ncn2c1=O [Temozolomide, temozolomide]

IC50 (G12 astrocytoma cells; G12 shAxl8, MTT): 0.31 nM
IC50 (G12 astrocytoma cells; G12 shAxl9, MTT): 0.2 nM
IC50 (G12 astrocytoma cells; G12 shControl, MTT): 1.64 nM
IC50 (G12 astrocytoma cells; G12 shMer1, MTT): 0.74 nM
IC50 (G12 astrocytoma cells; G12 shMer4, MTT): 0.22 nM
IC50 (A172 glioblastoma cells; A 172, A172 shAxl8, MTT): 0.68 nM
IC50 (A172 glioblastoma cells; A 172, A172 shAxl9, MTT): 2.92 nM
IC50 (A172 glioblastoma cells; A 172, A172 shControl, MTT): 2.54 nM
IC50 (A172 glioblastoma cells; A 172, A172 shMer1A, MTT): 1.25 nM
IC50 (A172 glioblastoma cells; A 172, A172 shMer1B, MTT): 0.54 nM
SMILES: CC[C@]1(O)C[C@H]2CN(CCc3c([nH]c4ccccc34)[C@@](C(=O)OC)(c3cc4c(cc3OC)N(C=O)[C@H]3[C@@](O)(C(=O)OC)[C@H](OC(C)=O)[C@]5(CC)C=CCN6CC[C@]43[C@@H]65)C2)C1 [VCR, vincristine]
IC50 ([1]; 697 Wild Type cells): 1.04 nM
IC50 ([1]; 697 shControl cells): 1.02 nM
IC50 [1, 6]: 0.54 nM
IC50 [1, 7]: 0.46 nM

IC50 ([4]; A549 Wild Type): 2200 nM
IC50 ([4]; A549 shAxl8-G5 (Axl knockdown)): 330 nM
IC50 ([4]; A549 shAxl9-D3 (Axl knockdown)): 1010 nM
IC50 ([4]; A549 shControl): 3320 nM
IC50 ([4]; A549 shMer1-G8 (Mer knockdown)): 3840 nM
IC50 ([5]; A549 Wild Type, 48 hours): 720 nM
IC50 ([5]; A549 shAxl8-G5, 48 hours): 1400 nM
IC50 ([5]; A549 shAxl9-D3, 48 hours): 590 nM
IC50 ([5]; A549 shControl, 48 hours): 910 nM
IC50 ([5]; A549 shMer1-G8, 48 hours): 370 nM
SMILES: COc1cc([C@@H]2c3cc4c(cc3[C@@H](O[C@@H]3O[C@@H]5CO[C@@H](C)O[C@H]5[C@H](O)[C@H]3O)[C@H]3COC(=O)[C@H]23)OCO4)cc(OC)c1O [VP-16, etoposide]
IC50 ([1]; 697 Wild Type cells): 181 nM
IC50 ([1]; 697 shControl cells): 173 nM
IC50 [1, 6]: 54 nM
IC50 [1, 7]: 60.3 nM
sensitivity of the shAxl9-D3 Axl knockdown clone ([4]; A549 shAxl9-D3, 48 hours): more sensitive
sensitivity of A549 cells with inhibition of Mer expression ([5]; A549 Mer1-G8 knockdown, BrdU, 48 hours): increased sensitivity
induction of apoptotic cell death with Mer knockdown (697 cells): increased induction of apoptotic cell death
